Literature values, collected in publication doi:10.1101/2025.05.01.651722v1 (bioRxiv, 2025).
No end group written: not given here.

Settings: solubility maintained by hydrophilic arginine tail

Substance: H-RLTRKRGLKLAGGGGGRRRRRRRRR [ApoB^11]
- hydrophobicity of the peptide: highly hydrophobic
